Source: patent EP4151201A1, “SHEET PRODUCT” (Kao Corporation, priority 2020, dated 2021)

Assay: Krafft point of the anionic surfactant
Format: physicochemical
Conditions: Krafft point at 10 mass% in aqueous solution; unit not given, Krafft points in °C
Procedure: The present invention uses a view that the Krafft point is a melting point of a hydrated solid of a surfactant. That is, the Krafft point is the temperature at which a surfactant precipitates when an aqueous solution thereof is cooled. In some kinds of surfactants, the Krafft point changes depending on the concentration. In the present invention, an anionic surfactant having a Krafft point of 45°C or more at a concentration of 10 mass% in an aqueous solution is used. The Krafft point can be measured using a differential scanning calorimetry.

| SMILES | Kp (Krafft point) |
| --- | --- |
| CCCCCCCCCCCC(=O)[O-].[Na+] [Sodium laurate] | Sodium laurate (Kp ≈ 38) |
| CCCCCCCCCCCCCCCCCC(=O)N(C)CCS(=O)(=O)[O-].[Na+] [Sodium N-stearoyl-N-methyltaurate] | Sodium N-stearoyl-N-methyltaurate (Kp = 50) (Nikkol SMT, manufactured by Nikko Chemicals Co., Ltd.) |
| CCCCCCCCCCCCCCCCCC(=O)[O-].[Na+] [Sodium stearate] | Sodium stearate (Kp = 79) |
